Data on 32 compounds can be found in US11116757B2 (priority 2015, dated 2021).

By IC50 is commonly meant the concentration at which inhibition is half-maximal.

This assay deals with DCN1-UBC12 interaction (Homo sapiens (Human), UniProt Q96GG9). Description: biochemical. It is filed as binding.
Where [1] appears, read: Table 4, commercial compounds, read-out: TR-FRET IC50.
[2] abbreviates: Table 7, commercial compounds, read-out: TR-FRET IC50.
Setting [3] is: Table 6, commercial compounds, read-out: TR-FRET IC50.

Like-named read-outs stand apart in the source and are kept apart here.

Sequence of DCN1-UBC12 interaction (Q96GG9 60-248 limits assumed): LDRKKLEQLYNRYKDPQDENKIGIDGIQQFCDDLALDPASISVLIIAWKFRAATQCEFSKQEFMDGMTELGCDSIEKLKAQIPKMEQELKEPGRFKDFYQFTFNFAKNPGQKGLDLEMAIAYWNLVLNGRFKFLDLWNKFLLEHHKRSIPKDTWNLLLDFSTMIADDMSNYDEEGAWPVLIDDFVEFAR

As for `CCCC(C)N1CCC(N(Cc2ccccc2)C(=O)Nc2ccc(Cl)c(C(F)(F)F)c2)CC1` (centres unmarked) [A64], the IC50 (read-out: TR-FRET IC50) is 0.414 µM.

Regarding `Cc1nc(NC(=O)NC2CCN(Cc3ccccc3)CC2)nn1C` [B25], the IC50 (read-out: TR-FRET IC50) is greater than 16.3 µM.

Regarding `CCCCN1CCC(N(Cc2ccccc2)C(=O)Nc2cccc(Cl)c2)CC1` [A60], the IC50 (read-out: TR-FRET IC50) came out at 0.357 µM.

In the case of `CCCCN1CCC(N(Cc2ccccc2)C(=O)Nc2cccc(C)c2)CC1` [A95], where the note is “read-out: TR-FRET IC50”, the IC50 came to 1.32 µM.

Regarding `O=C(Nc1cc(F)cc(C(F)(F)F)c1)N(Cc1ccccc1)C1CCN(C/C=C/c2ccccc2)CC1` [A143], the IC50 (read-out: TR-FRET IC50) amounted to 4.27 µM.

Turning to `COc1ccccc1NC(=O)N(CCCN1CCC(C)CC1)C1CCN(C(C)=O)CC1` [B96], for the setting “read-out: TR-FRET IC50”, the IC50 is greater than 67.6 µM.

As for `CN1CC(NC(=O)NC2CCN(Cc3ccccc3)CC2)c2ccccc2C1=O` (centres unmarked) [B17], the IC50 (read-out: TR-FRET IC50) came out at 55.6 µM.

Consider `CCc1cccc(NC(=O)C2CCN(C(=O)c3cnn(-c4ccccc4)c3-n3cccc3)CC2)c1` [C69], for which the half-inhibitory concentration (IC50) under setting [1] is greater than 81.4 µM.

On to `O=C(Nc1ccc(C(F)(F)F)cc1)N1CCN(C/C=C/c2ccccc2)CC1` [C13], for which, under setting [1], the IC50 is greater than 66.3 µM.

On to `CCCC(C)N1CCC(N(Cc2ccccc2)C(=O)Nc2cc(F)cc(S(F)(F)(F)(F)F)c2)CC1` (centres unmarked) [A48], for which, where the note is “read-out: TR-FRET IC50”, the IC50 was 0.26 µM.

On to `CCCC(C)N1CCC(N(Cc2ccccc2)C(=O)Nc2cccc(O)c2)CC1` (centres unmarked) [A177], for which, for the setting “read-out: TR-FRET IC50”, the IC50 is 14.5 µM.

As to `CCCOc1ccc(C2c3c(C)nn(C)c3NC(=O)C2NC(=O)c2cccc(C)c2)cc1OC` (centres unmarked) [F22], the IC50 under setting [2] was greater than 67.6 µM.

For `Cc1cnc(-n2ncc(C(=O)NCCC(C)C)c2C)nc1-c1cccs1` [E29], the IC50 under setting [3] is greater than 67.6 µM.

For `CCCC(C)N1CCC(N(Cc2ccccc2)C(=O)Nc2ccc3ncccc3c2)CC1` (centres unmarked) [A207], for the setting “read-out: TR-FRET IC50”, the half-maximal inhibitory concentration (IC50) was greater than 21 µM.

Turning to `CCc1ccc(NC(=O)C2CCN(C(=O)N3CC(C)Oc4ccccc43)CC2)cc1` (centres unmarked) [C52], under setting [1], the IC50 is greater than 67.6 µM.

`Cc1cccc(CN2CCC(NC(=O)Nc3cccc(C(F)(F)F)c3)CC2)c1` [A155, 1-(1-(3-Methylbenzyl)Piperidin-4-yl)-3-(3-(Trifluoromethyl)Phenyl)Urea]: under “read-out: TR-FRET IC50”, the IC50 turned out to be 6.77 µM.

On to `CSc1cccc(NC(=O)C2CCN(C(=O)c3cnn(-c4ccccc4)c3-n3cccc3)CC2)c1` [C9], for which, under setting [1], the IC50 is greater than 76.7 µM.

`CCCN1CCN(C(=O)c2cnn(-c3nccc(-c4cccs4)n3)c2C2CC2)CC1` [E58]: the half-maximal inhibitory concentration (IC50) under setting [3] was greater than 67.6 µM.

`CCCC(C)N1CCC(N(Cc2ccccc2)C(=O)Nc2ccc(C(F)(F)F)nc2C)CC1` (centres unmarked) [A178] had an IC50 (TR-FRET IC50) of 15.8 µM.

Take `CC1CC(NC(=O)NC2CCCNC2=O)CCN1Cc1ccccc1` (centres unmarked) [B36]: the half-maximal inhibitory concentration (IC50) (read-out: TR-FRET IC50) is greater than 57.8 µM.

As for `CCC1CN(C(=O)N2CCC(C(=O)Nc3cccc(Cl)c3)CC2)c2ccccc2O1` (centres unmarked) [C55], under setting [1], the 50% inhibitory concentration (IC50) is greater than 67.6 µM.

On to `O=C(Nc1cc(F)cc(C(F)(F)F)c1)N(Cc1ccccc1)C1CCN(Cc2cncnc2)CC1` [A210], for which the IC50 (read-out: TR-FRET IC50) is greater than 21.7 µM.

Turning to `COCCN1CCN(C(=O)c2cnn(-c3ncc(C)c(-c4cccs4)n3)c2C2CC2)CC1` [E30], the IC50 under setting [3] was greater than 67.6 µM.

On to `C=CCNC(=O)c1cnn(-c2ncc(C)c(-c3cccs3)n2)c1C` [E59], for which the IC50 under setting [3] was greater than 67.6 µM.

In the case of `C=CS(=O)(=O)NCc1ccccc1CN(C(=O)Nc1cccc(C(F)(F)F)c1)C1CCN(C(C)CCC)CC1` (centres unmarked) [A2], under “read-out: TR-FRET IC50”, the IC50 amounted to 0.0068 µM.

With `CCN1CCN(C(=O)c2cnn(-c3ncc(C)c(-c4cccs4)n3)c2COC)CC1` [E20], under setting [3], the IC50 was 48.2 µM.

Regarding `CN(C)c1ccc(CN2CCC(N(Cc3ccccc3)C(=O)Nc3cc(F)cc(C(F)(F)F)c3)CC2)cc1` [A209], the IC50 (read-out: TR-FRET IC50) is greater than 21.5 µM.

On to `Cc1cccc(C(=O)NC2C(=O)Nc3c(c(C)nn3C)C2c2ccc(F)c(Br)c2)c1` (centres unmarked) [F17], for which, under setting [2], the IC50 was greater than 67.6 µM.

Consider `CCCCN1CCC(N(Cc2ccccc2)C(=O)Nc2cccc(C#N)c2)CC1` [A242], for which, under “read-out: TR-FRET IC50”, the IC50 was greater than 52.5 µM.

Turning to `CCN(CC)C(=O)c1cnn(-c2nccc(-c3cccs3)n2)c1C1CC1` [E61], the IC50 under setting [3] is greater than 71.6 µM.

In the case of `CCCC(C)N1CCC(N(Cc2ccccc2)C(=O)Nc2ccc(OC)cc2OC)CC1` (centres unmarked) [A197], the IC50 (read-out: TR-FRET IC50) was greater than 111 µM.

In the case of `CCCC(C)N1CCC(N(Cc2ccccc2)C(=O)Nc2ccc(C)nc2Br)CC1` (centres unmarked) [A240], the half-maximal inhibitory concentration (IC50) (read-out: TR-FRET IC50) is greater than 51.7 µM.
